Test results: PubChem BioAssay (NCI)
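Cells were grown in 96-well plates and exposed to each compound for 48 hours at five concentrations; endpoints were interpolated linearly between bracketing concentrations, or set to the highest concentration if not reached. Abbreviation: GI50, concentration required for 50% inhibition of growth. TGI: concentration producing complete growth inhibition.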

Assays:
Experiment in all cases: growth of human tumour cells (NCI), 48 h
[1] = tested on: UACC-62 melanoma
[2] = tested on: NCI-H226 lung
[3] = tested on: NCI-H460 lung
[4] = tested on: PC-3 prostate
[5] = tested on: HT29 colon
[6] = tested on: 786-0 renal
[7] = tested on: K-562 leukemia
[8] = tested on: A549 NSCLC
[9] = tested on: DU-145 prostate
[10] = tested on: SF-539 CNS
[11] = tested on: SW-620 colon
[12] = tested on: OVCAR-5 ovarian
[13] = tested on: HOP-92 NSCLC
[14] = tested on: CAKI-1 renal
[15] = tested on: RPMI-8226 leukemia
[16] = tested on: COLO 205 colon
[17] = tested on: UO-31 renal
[18] = tested on: U251 CNS
[19] = tested on: OVCAR-4 ovarian
[20] = tested on: T-47D breast
[21] = tested on: HCT-116 colon
[22] = tested on: CCRF-CEM leukemia
[23] = tested on: SNB-75 CNS
[24] = tested on: OVCAR-3 ovarian
[25] = tested on: A498 renal
[26] = tested on: SK-MEL-2 melanoma
[27] = tested on: SK-OV-3 ovarian
[28] = tested on: OVCAR-8 ovarian
[29] = tested on: HCT-15 colon
[30] = tested on: M14 melanoma

SMILES: O=C(CN1CCN(c2ncnc3c2cnn3-c2ccccc2)CC1)Nc1nncs1
- TGI [1]: 18.7 µM
- GI50 [2]: 1.84 µM
- TGI [2]: 5.14 µM
- GI50 [3]: 4.25 µM
- TGI [3]: 14.7 µM
- GI50 [4]: 4.33 µM
- TGI [4]: 17.1 µM
- GI50 [5]: 6.91 µM
- TGI [5]: 19.3 µM
- GI50 [6]: 1.99 µM
- TGI [6]: 3.56 µM
- GI50 [7]: 7.91 µM
- TGI [7]: 36.6 µM
- GI50 [8]: 2.07 µM
- TGI [8]: 4.31 µM
- GI50 [9]: 1.8 µM
- TGI [9]: 3.24 µM
- GI50 [10]: 1.76 µM
- TGI [10]: 3.32 µM
- GI50 [11]: 4.99 µM
- TGI [11]: 16.1 µM
- GI50 [12]: 6.41 µM
- TGI [12]: 19.3 µM
- GI50 [13]: 1.57 µM
- TGI [13]: 3.46 µM
- GI50 [14]: 1.6 µM
- TGI [14]: 2.97 µM
- GI50 [15]: 2.83 µM
- TGI [15]: 8.67 µM
- GI50 [16]: 14 µM
- TGI [16]: 27 µM
- GI50 [17]: 1.17 µM
- TGI [17]: 2.39 µM
- GI50 [18]: 1.92 µM
- TGI [18]: 3.99 µM
- GI50 [19]: 10.3 µM
- TGI [19]: 28.1 µM
- GI50 [20]: 7.93 µM
- TGI [20]: 24.1 µM
- GI50 [21]: 3.75 µM
- TGI [21]: 14.5 µM
- GI50 [22]: 2.55 µM
- TGI [22]: 7.17 µM
- GI50 [23]: 15.1 µM
- TGI [23]: 30.5 µM
- GI50 [24]: 1.93 µM
- TGI [24]: 3.67 µM
- GI50 [25]: 18.4 µM
- TGI [25]: 35 µM
- GI50 [26]: 12.6 µM
- TGI [26]: 25.8 µM
- GI50 [27]: 12.5 µM
- TGI [27]: 25 µM
- GI50 [28]: 1.93 µM
- TGI [28]: 4.02 µM
- GI50 [29]: 1.79 µM
- TGI [29]: 3.42 µM
- GI50 [30]: 4.17 µM
- TGI [30]: 16.2 µM
